Counter-ions that a name gives are not always drawn. Like-named read-outs stand apart in the source and are kept apart here.
Molecular target: T1, Human IP6K1 (Homo sapiens, UniProt Q92551)
T1 construct: GST (N, cleaved yes); made in house; host or cells: C43 E. coli, pGEX-6P-2
Test: IP6K1 high-throughput screen of the Sigma LOPAC (ADP-Glo Max, single point);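 also: final compound concentration 10µM in 5% DMSO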
Format: biochemical

[1] = Sigma LOPAC single-point screen, ADP-Glo Max raw signal per well
[2] = Sigma LOPAC single-point screen, Z-score from plate average and StDev
[3] = LOPAC single-point screen, ADP-Glo Max raw signal per well
[4] = LOPAC single-point screen, Z-score from raw signal with plate average and StDev
[5] = LOPAC single-point screen, ADP-Glo Max luminescence raw signal per well
[6] = LOPAC single-point screen, Z-score from plate average and StDev
[7] = LOPAC single-point screen, Z-score against plate average and StDev
[8] = LOPAC single-point screen, Z-score relative to plate average and StDev

T1 sequence (Q92551 whole entry): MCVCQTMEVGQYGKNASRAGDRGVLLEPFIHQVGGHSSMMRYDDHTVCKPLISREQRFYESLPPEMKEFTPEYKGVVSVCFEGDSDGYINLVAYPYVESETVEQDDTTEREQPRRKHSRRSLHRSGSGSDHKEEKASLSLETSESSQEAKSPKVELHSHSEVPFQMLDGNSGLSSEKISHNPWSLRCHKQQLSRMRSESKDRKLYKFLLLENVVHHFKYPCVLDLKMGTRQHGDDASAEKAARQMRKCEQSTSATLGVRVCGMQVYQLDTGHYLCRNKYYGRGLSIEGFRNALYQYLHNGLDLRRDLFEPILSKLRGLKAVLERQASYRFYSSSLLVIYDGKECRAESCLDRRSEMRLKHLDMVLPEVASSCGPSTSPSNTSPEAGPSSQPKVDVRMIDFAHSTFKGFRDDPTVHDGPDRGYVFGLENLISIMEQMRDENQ

Structure (SMILES): CCN(CC)CCOC(=O)c1ccc(N)cc1 [Procaine hydrochloride]
- Raw Signal [1]: 61379
- Z-score [2]: 1.04

Structure (SMILES): CN1CCN(CCCN2c3ccccc3Sc3ccc(Cl)cc32)CC1 [Prochlorperazine dimaleate]
- Raw Signal [1]: 58817
- Z-score [2]: 0.5427

Structure (SMILES): CC(=O)[C@H]1CC[C@H]2[C@@H]3CCC4=CC(=O)CC[C@]4(C)[C@H]3CC[C@]12C [Progesterone]
- Raw Signal [3]: 53663
- Z-score [4]: -0.1227

Structure (SMILES): CCCN(CCC)C(=O)C(CCC(=O)O)NC(=O)c1ccccc1 (centres unmarked) [Proglumide]
- Raw Signal [3]: 53192
- Z-score [4]: -0.2019

Structure (SMILES): CN(C)CCCN1c2ccccc2Sc2ccccc21 [Promazine hydrochloride]
- Raw Signal [5]: 63198
- Z-score [6]: 1.394

Structure (SMILES): CC(CN1c2ccccc2Sc2ccccc21)N(C)C (centres unmarked) [Promethazine hydrochloride]
- Raw Signal [1]: 57662
- Z-score [2]: 0.5492

Structure (SMILES): CCCNCC(O)COc1ccccc1C(=O)CCc1ccccc1 (centres unmarked) [Propafenone hydrochloride]
- Raw Signal [3]: 54187
- Z-score [7]: -0.0347

Structure (SMILES): CC(C)[N+](C)(CCOC(=O)C1c2ccccc2Oc2ccccc21)C(C)C [Propantheline bromide]
- Raw Signal [1]: 58434
- Z-score [2]: 0.4683

Structure (SMILES): CCCn1cnc2c1c(=O)n(CCCCC(C)=O)c(=O)n2C [Propentofylline]
- Raw Signal [3]: 54119
- Z-score [4]: -0.3701

Structure (SMILES): CCC(=O)c1ccc2c(c1)N(CCCN(C)C)c1ccccc1S2 [Propionylpromazine hydrochloride]
- Raw Signal [3]: 56049
- Z-score [7]: 0.004895

Structure (SMILES): CC(C)c1cccc(C(C)C)c1O [Propofol]
- Raw Signal: 48098
- Z-score: -1.436

Structure (SMILES): C=CC1=C(C)c2cc3[nH]c(cc4nc(cc5[nH]c(cc1n2)c(C)c5CCC(=O)O)C(CCC(=O)O)=C4C)c(C)c3C=C [Protoporphyrin IX disodium]
- Raw Signal [3]: 54546
- Z-score [4]: -0.2871

Structure (SMILES): CNCCCC1c2ccccc2C=Cc2ccccc21 [Protriptyline hydrochloride]
- Raw Signal [3]: 55179
- Z-score [4]: -0.1641

Structure (SMILES): CC(C)[C@H](CO)Nc1nc(Nc2cccc(Cl)c2)c2ncn(C(C)C)c2n1 [Purvalanol A]
- Raw Signal [3]: 54135
- Z-score [7]: -0.04344

Structure (SMILES): NCCCCN [Putrescine dihydrochloride]
- Raw Signal [3]: 56490
- Z-score [7]: 0.09057

Structure (SMILES): NC(=O)c1cnccn1 [Pyrazinecarboxamide]
- Raw Signal [1]: 58526
- Z-score [2]: 0.4861

Structure (SMILES): CN(C)C(=O)Oc1ccc[n+](C)c1 [Pyridostigmine bromide]
- Raw Signal [3]: 56672
- Z-score [7]: 0.1259

Structure (SMILES): COc1ccc(CN(CCN(C)C)c2ccccn2)cc1 [Pyrilamine maleate]
- Raw Signal [1]: 60252
- Z-score [2]: 0.9844

Structure (SMILES): Oc1ccccc1O [Pyrocatechol]
- Raw Signal [5]: 49319
- Z-score [8]: -1.514

Structure (SMILES): C[C@@H]1C(=O)NC2=Nc3cccc(Cl)c3CN21 [Quazinone]
- Raw Signal [3]: 53682
- Z-score [4]: -0.455

Structure (SMILES): O=c1c(O)c(-c2ccc(O)c(O)c2)oc2cc(O)cc(O)c12 [Quercetin dihydrate]
- Raw Signal [5]: 52548
- Z-score [8]: -0.6753

Structure (SMILES): CCN(CC)CCCC(C)Nc1c2ccc(Cl)cc2nc2ccc(OC)cc12 (centres unmarked) [Quinacrine dihydrochloride]
- Raw Signal [1]: 60550
- Z-score [2]: 0.8794

Structure (SMILES): CCCN1CCC[C@@H]2Cc3nc(N)ncc3C[C@H]21.Cl.Cl [Quinelorane dihydrochloride]
- Raw Signal [5]: 53110
- Z-score [8]: -0.5661

Structure (SMILES): C=C[C@H]1C[N@@]2CC[C@H]1C[C@@H]2[C@@H](O)c1ccnc2ccc(OC)cc12 [Quinidine sulfate]
- Raw Signal [3]: 56373
- Z-score [7]: 0.06784

Structure (SMILES): C=C[C@H]1C[N@@]2CC[C@H]1C[C@H]2[C@H](O)c1ccnc2ccc(OC)cc12 [Quinine sulfate]
- Raw Signal [3]: 53765
- Z-score [4]: -0.4388

Structure (SMILES): O=C(O)c1cccnc1C(=O)O [Quinolinic acid]
- Raw Signal [5]: 51489
- Z-score [8]: -0.881

Structure (SMILES): O=C(O)/C=C\C(=O)O.O=C(O)/C=C\C(=O)O.c1ccc2nc(N3CCNCC3)ccc2c1 [Quipazine dimaleate]
- Raw Signal [3]: 57228
- Z-score [7]: 0.234

Structure (SMILES): O=C(O)/C=C\C(=O)O.O=[N+]([O-])c1ccc2nc(N3CCNCC3)ccc2c1 [Quipazine, 6-nitro-, maleate]
- Z-score [4]: -0.2764

Structure (SMILES): CN1CCN(c2ccc3ccccc3n2)CC1.O=C(O)/C=C\C(=O)O.O=C(O)/C=C\C(=O)O [Quipazine, N-methyl-, dimaleate]
- Raw Signal [5]: 51627
- Z-score [8]: -0.8542

Structure (SMILES): CCCN1CCC[C@H](c2cccc(O)c2)C1.Cl [R(+)-3PPP hydrochloride]
- Raw Signal [5]: 50646
- Z-score [8]: -1.045

Structure (SMILES): Br.C=CCN1CCc2c(cc(O)c(O)c2Br)[C@@H](c2ccccc2)C1 [R(+)-6-Bromo-APB hydrobromide]
- Raw Signal [3]: 58651
- Z-score [7]: 0.13

Structure (SMILES): CC(C)NC[C@@H](O)COc1ccc(CC(N)=O)cc1 [R(+)-Atenolol]
- Raw Signal [5]: 54301
- Z-score [8]: -0.6362

Structure (SMILES): C[C@@]1(C2CCCC2)Cc2cc(OCC(=O)O)c(Cl)c(Cl)c2C1=O [R(+)-IAA-94]
- Raw Signal [5]: 46670
- Z-score [8]: -1.298

Structure (SMILES): CN1CCc2cc(Cl)c(O)cc2[C@@H](c2ccccc2)C1.Cl [R(+)-SCH-23390 hydrochloride]
- Raw Signal [3]: 55189
- Z-score [7]: 0.004461

Structure (SMILES): CCN(CC)C(=O)N[C@H]1C[C@@H]2c3cccc4[nH]cc(c34)C[C@H]2N(C)C1 [R(+)-Terguride]
- Raw Signal [1]: 59619
- Z-score [2]: 0.6985

Structure (SMILES): CCCN(CCC)[C@@H]1CCc2c(F)ccc(O)c2C1.Cl [R(+)-UH-301 hydrochloride]
- Raw Signal [3]: 54775
- Z-score [4]: -0.2426

Structure (SMILES): COc1ccc2c(c1O)-c1cccc3c1[C@@H](C2)N(C)CC3.Cl [R(-)-Apocodeine hydrochloride]
- Raw Signal [5]: 50869
- Z-score [8]: -0.8729

Structure (SMILES): COc1ccc(CCNC[C@H](O)c2ccc(O)cc2)cc1OC [R(-)-Denopamine]
- Raw Signal [1]: 58220
- Z-score [2]: 0.4267

Structure (SMILES): CC(C)NC[C@H](O)c1ccc(O)c(O)c1.O=C(O)C(O)C(O)C(=O)O [R(-)-Isoproterenol (+)-bitartrate]
- Raw Signal [5]: 62194
- Z-score [6]: 1.427

Structure (SMILES): C[C@H](Cc1ccccc1)Nc1ncnc2c1ncn2[C@@H]1O[C@H](CO)[C@@H](O)[C@H]1O [R(-)-N6-(2-Phenylisopropyl)adenosine]
- Raw Signal [1]: 58463
- Z-score [2]: 0.6838

Structure (SMILES): Br.C=CCN1CCc2cccc3c2[C@H]1Cc1ccc(O)c(O)c1-3 [R(-)-N-Allylnorapomorphine hydrobromide]
- Raw Signal [5]: 62401
- Z-score [6]: 1.469

Structure (SMILES): CCCN1CCc2cccc3c2[C@H]1Cc1ccc(O)c(O)c1-3.Cl [R(-)-Propylnorapomorphine hydrochloride]
- Raw Signal [5]: 49804
- Z-score [8]: -1.089

Structure (SMILES): Br.CCCN(CCC)[C@@H]1CCc2ccc(O)cc2C1 [R-(+)-7-Hydroxy-DPAT hydrobromide]
- Raw Signal [5]: 62909
- Z-score [6]: 1.572

Structure (SMILES): Br.CCCN(CCC)[C@@H]1CCc2cccc(O)c2C1 [R-(+)-8-Hydroxy-DPAT hydrobromide]
- Raw Signal [1]: 58179
- Z-score [2]: 0.6117

Structure (SMILES): C#CCN(C)[C@H](C)Cc1ccccc1.Cl [R-(-)-Deprenyl hydrochloride]
- Raw Signal [3]: 53619
- Z-score [4]: -0.1301

Structure (SMILES): C#CCN[C@H](C)Cc1ccccc1.Cl [R-(-)-Desmethyldeprenyl hydrochloride]
- Raw Signal [5]: 52026
- Z-score [8]: -0.6379

Structure (SMILES): CNCC[C@@H](Oc1ccc(C(F)(F)F)cc1)c1ccccc1.Cl [R-(-)-Fluoxetine hydrochloride]
- Raw Signal [5]: 63921
- Z-score [6]: 1.778

Structure (SMILES): CCCCCC(O)c1cccc(OCc2ccc3ccccc3n2)c1 (centres unmarked) [REV 5901]
- Raw Signal [1]: 62376
- Z-score [2]: 1.234

Structure (SMILES): COC1(C2=NCCN2)COc2ccccc2O1.Cl (centres unmarked) [RX 821002 hydrochloride]
- Raw Signal [3]: 56903
- Z-score [7]: 0.1708

Structure (SMILES): O=C(c1ccc(OCCN2CCCCC2)cc1)c1c(-c2ccc(O)cc2)sc2cc(O)ccc12 [Raloxifene hydrochloride]
- Raw Signal [3]: 54124
- Z-score [4]: -0.3691

Structure (SMILES): CNC(=C[N+](=O)[O-])NCCSCc1ccc(CN(C)C)o1 [Ranitidine hydrochloride]
- Raw Signal [3]: 57122
- Z-score [7]: 0.2134

Structure (SMILES): COc1ccccc1OCC(O)CN1CCN(CC(=O)Nc2c(C)cccc2C)CC1 (centres unmarked) [Ranolazine dihydrochloride]
- Raw Signal [3]: 54866
- Z-score [4]: -0.2249

Structure (SMILES): COC(=O)[C@H]1[C@H]2C[C@H]3c4[nH]c5ccccc5c4CCN3C[C@H]2CC[C@@H]1O [Rauwolscine hydrochloride]
- Raw Signal [3]: 54997
- Z-score [4]: -0.1995

Structure (SMILES): Nc1c(S(=O)(=O)O)cc(Nc2ccc(Nc3nc(Cl)nc(Nc4cccc(S(=O)(=O)O)c4)n3)c(S(=O)(=O)O)c2)c2c1C(=O)c1ccccc1C2=O [Reactive Blue 2]
- Raw Signal [5]: 20201
- Z-score [8]: -6.96

Structure (SMILES): COC(=O)[C@H]1[C@H]2C[C@@H]3c4[nH]c5cc(OC)ccc5c4CCN3C[C@H]2C[C@@H](OC(=O)c2cc(OC)c(OC)c(OC)c2)[C@@H]1OC [Reserpine]
- Raw Signal [3]: 59002
- Z-score [7]: 0.1918

Structure (SMILES): Oc1ccc(/C=C/c2cc(O)cc(O)c2)cc1 [Resveratrol]
- Raw Signal [3]: 54146
- Z-score [4]: -0.3648

Structure (SMILES): CC1=C(/C=C/C(C)=C/C=C/C(C)=C/C(=O)Nc2ccc(O)cc2)C(C)(C)CCC1 [Retinoic acid p-hydroxyanilide]
- Raw Signal [3]: 55637
- Z-score [7]: 0.09545

Structure (SMILES): CC1=C(/C=C/C(C)=C/C=C/C(C)=C/C(=O)O)C(C)(C)CCC1 [Retinoic acid]
- Raw Signal [5]: 50659
- Z-score [8]: -1.042

Structure (SMILES): NC(=O)c1ncn([C@@H]2O[C@H](CO)[C@@H](O)[C@H]2O)n1 [Ribavirin]
- Raw Signal [3]: 54731
- Z-score [4]: -0.2512

Structure (SMILES): C1COC(NC(C2CC2)C2CC2)=N1 [Rilmenidine hemifumarate]
- Raw Signal [3]: 56006
- Z-score [7]: -0.003459

From publication PMC5706701, “Development of a homogenous high-throughput assay for inositol hexakisphosphate kinase 1 activity” (PLoS ONE, 2017)
